Molecular target: β-glucosidase B (BglB) (Paenibacillus polymyxa, UniProt P22505)
Assay: hydrolysis monitored at […] nm, Michaelis-Menten nonlinear fit
Type: biochemical
Details: 0-100 mM substrate, 15 min

Sequence of β-glucosidase B (BglB) (P22505 whole entry): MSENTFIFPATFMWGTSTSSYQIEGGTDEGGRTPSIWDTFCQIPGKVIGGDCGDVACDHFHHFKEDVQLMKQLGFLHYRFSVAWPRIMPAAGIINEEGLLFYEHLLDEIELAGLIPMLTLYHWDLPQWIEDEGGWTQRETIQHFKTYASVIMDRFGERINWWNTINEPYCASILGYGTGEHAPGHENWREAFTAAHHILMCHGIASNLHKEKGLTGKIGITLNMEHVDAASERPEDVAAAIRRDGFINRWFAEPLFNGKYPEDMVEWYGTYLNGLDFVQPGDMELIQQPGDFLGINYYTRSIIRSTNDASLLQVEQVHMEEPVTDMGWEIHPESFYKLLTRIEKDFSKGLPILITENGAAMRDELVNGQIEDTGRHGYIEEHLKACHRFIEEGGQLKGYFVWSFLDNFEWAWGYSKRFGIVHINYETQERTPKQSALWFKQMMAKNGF

O=[N+]([O-])c1ccc(O[C@@H]2O[C@H](CO)[C@@H](O)[C@H](O)[C@H]2O)cc1 [pPNG, 4-nitrophenyl-β-D-glucopyranoside]
Km: 5 ± 0.3 mM

Reference: paper doi:10.1101/2025.11.24.690255v1 (biorxiv, 2025)
